This passage reports remaining binding results from PMC6437697 (Journal of Medicinal Chemistry, 2019).

The structures appear in SMILES notation.

Holding throughout (assay): KINOMEscan
What all share (type): binding
What all share (settings): read-out: % control activity remaining

One assay deals with T1, IKK-beta (Homo sapiens, UniProt O14920).
T1 construct: purchased Eurofins DiscoverX KINOMEscan
T1 sequence (O14920 1-756): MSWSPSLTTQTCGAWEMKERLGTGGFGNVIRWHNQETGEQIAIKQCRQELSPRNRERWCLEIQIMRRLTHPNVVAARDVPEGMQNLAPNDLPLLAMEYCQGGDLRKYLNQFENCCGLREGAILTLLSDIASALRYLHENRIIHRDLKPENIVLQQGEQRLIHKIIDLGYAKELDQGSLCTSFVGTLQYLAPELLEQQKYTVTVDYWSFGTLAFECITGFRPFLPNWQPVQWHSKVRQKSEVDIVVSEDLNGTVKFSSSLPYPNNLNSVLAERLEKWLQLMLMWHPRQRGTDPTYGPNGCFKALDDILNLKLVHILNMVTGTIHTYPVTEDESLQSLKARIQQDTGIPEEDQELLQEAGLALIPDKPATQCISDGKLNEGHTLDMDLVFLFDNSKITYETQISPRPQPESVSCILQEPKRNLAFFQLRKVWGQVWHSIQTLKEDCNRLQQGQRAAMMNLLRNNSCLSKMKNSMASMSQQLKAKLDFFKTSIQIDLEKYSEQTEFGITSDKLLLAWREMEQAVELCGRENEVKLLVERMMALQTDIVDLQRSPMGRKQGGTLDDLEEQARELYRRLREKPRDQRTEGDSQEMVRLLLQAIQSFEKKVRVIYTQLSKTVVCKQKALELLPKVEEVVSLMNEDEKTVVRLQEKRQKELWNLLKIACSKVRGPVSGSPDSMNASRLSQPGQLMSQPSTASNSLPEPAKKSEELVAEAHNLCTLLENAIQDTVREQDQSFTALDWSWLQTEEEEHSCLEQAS

The next assay concerns the target T2, LIMK1 (Homo sapiens, UniProt P53667).
T2 construct: purchased Eurofins DiscoverX KINOMEscan

For the next assay, the target named is T3, CDC2L1 (Homo sapiens, UniProt P21127).
T3 construct: purchased Eurofins DiscoverX KINOMEscan

In the next assay the target is T4, PCTK3 (Homo sapiens, UniProt Q07002).
T4 construct: purchased Eurofins DiscoverX KINOMEscan

A further assay has as its target T5, MET(M1250T) (Homo sapiens, UniProt P08581, M1250T).
T5 construct: purchased Eurofins DiscoverX KINOMEscan

The target of assay [1] is T6, RPS6KA4(Kin.Dom.2-C-terminal) (Homo sapiens, UniProt O75676).
T6 construct: RPS6KA4(Kin.Dom.2-C-terminal); purchased Eurofins DiscoverX KINOMEscan

The next assay concerns the target T7, MEK3 (Homo sapiens, UniProt P46734).
T7 construct: purchased Eurofins DiscoverX KINOMEscan
T7 sequence (P46734 1-347): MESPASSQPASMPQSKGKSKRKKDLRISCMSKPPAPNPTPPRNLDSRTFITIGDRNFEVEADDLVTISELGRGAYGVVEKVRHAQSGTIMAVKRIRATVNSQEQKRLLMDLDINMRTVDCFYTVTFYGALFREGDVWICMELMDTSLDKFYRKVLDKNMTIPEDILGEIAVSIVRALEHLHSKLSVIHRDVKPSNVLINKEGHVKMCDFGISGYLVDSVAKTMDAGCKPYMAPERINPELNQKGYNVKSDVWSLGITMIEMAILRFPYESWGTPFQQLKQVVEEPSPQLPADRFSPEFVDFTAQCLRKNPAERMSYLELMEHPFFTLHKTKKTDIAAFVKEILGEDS

The next assay has as its target T8, RIOK3 (Homo sapiens, UniProt O14730).
T8 construct: purchased Eurofins DiscoverX KINOMEscan
T8 sequence (O14730 1-519): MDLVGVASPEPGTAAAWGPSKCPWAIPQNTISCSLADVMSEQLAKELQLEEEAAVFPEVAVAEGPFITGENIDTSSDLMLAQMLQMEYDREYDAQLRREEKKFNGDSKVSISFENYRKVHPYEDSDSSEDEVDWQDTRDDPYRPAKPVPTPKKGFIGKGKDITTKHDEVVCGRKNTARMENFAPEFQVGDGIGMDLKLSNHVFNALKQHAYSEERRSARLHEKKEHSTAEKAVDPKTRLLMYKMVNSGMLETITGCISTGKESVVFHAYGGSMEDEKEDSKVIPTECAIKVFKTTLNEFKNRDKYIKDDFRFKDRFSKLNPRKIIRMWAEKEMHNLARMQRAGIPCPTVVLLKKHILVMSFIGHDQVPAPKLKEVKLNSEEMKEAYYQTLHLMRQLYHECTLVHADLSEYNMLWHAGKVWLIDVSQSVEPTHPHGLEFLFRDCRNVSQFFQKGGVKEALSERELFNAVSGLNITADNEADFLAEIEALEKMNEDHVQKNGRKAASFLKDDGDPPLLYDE

Another assay addresses T9, PDGFRA (Homo sapiens, UniProt P16234).
T9 construct: purchased Eurofins DiscoverX KINOMEscan

In another assay the target is T10, NEK2 (Homo sapiens, UniProt P51955).
T10 construct: purchased Eurofins DiscoverX KINOMEscan
T10 sequence (P51955 1-445): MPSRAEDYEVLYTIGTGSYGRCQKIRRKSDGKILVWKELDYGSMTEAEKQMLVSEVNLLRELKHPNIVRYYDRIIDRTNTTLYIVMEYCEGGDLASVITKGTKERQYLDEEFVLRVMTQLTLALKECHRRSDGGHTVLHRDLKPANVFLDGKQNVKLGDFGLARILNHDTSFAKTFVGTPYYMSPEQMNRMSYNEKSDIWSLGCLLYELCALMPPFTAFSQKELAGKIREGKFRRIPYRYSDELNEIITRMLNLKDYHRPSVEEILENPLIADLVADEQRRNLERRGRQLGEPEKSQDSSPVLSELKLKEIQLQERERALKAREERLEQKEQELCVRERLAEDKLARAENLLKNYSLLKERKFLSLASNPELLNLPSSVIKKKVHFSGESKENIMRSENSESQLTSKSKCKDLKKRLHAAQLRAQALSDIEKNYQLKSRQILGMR

The target of the next assay is T11, AKT1 (Homo sapiens, UniProt P31749).
T11 construct: purchased Eurofins DiscoverX KINOMEscan

The target in the next assay is T12, MLK1 (Homo sapiens, UniProt P80192).
T12 construct: purchased Eurofins DiscoverX KINOMEscan
T12 sequence (P80192 whole entry): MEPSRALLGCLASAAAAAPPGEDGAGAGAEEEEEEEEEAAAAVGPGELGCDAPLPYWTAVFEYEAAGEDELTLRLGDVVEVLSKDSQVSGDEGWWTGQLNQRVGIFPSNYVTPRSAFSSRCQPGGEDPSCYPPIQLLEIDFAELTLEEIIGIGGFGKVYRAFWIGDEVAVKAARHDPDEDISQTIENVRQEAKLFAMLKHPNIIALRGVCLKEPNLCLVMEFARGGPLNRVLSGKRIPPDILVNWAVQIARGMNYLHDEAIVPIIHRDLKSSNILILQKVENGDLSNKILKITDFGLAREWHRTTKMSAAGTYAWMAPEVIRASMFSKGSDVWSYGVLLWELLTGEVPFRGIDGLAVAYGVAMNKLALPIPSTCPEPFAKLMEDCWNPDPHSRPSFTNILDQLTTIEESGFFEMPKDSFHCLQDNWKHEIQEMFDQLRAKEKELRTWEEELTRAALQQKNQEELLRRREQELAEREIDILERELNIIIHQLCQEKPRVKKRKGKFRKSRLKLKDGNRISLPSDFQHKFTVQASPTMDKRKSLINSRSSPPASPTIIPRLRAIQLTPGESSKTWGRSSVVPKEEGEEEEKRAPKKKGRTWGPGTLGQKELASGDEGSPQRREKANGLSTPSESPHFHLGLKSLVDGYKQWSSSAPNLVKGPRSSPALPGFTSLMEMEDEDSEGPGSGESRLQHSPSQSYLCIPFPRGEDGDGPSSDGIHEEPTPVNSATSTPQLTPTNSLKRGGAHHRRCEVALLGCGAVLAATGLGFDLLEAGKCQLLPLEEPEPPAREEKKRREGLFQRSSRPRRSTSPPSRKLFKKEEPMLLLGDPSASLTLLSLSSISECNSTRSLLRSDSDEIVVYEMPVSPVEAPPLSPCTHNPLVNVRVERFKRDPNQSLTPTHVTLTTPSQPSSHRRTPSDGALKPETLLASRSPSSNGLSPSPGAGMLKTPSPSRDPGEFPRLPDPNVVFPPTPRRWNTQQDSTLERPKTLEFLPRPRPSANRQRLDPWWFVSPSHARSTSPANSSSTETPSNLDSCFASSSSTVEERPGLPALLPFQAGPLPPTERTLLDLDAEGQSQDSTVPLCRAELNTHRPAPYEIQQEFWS

T4 sequence (Q07002 whole entry): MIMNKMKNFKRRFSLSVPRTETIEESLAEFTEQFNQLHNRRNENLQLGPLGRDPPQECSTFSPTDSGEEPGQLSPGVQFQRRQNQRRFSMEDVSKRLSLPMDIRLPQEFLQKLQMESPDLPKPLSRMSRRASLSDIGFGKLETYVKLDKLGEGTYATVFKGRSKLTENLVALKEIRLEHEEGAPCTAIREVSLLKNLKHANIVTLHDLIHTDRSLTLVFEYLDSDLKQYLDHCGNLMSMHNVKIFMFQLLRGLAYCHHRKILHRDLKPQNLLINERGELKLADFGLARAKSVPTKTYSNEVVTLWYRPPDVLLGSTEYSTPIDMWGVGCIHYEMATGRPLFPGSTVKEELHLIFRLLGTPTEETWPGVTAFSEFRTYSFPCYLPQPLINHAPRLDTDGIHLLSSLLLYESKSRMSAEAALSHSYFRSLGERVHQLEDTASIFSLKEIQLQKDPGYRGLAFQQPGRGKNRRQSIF
T11 sequence (P31749 whole entry): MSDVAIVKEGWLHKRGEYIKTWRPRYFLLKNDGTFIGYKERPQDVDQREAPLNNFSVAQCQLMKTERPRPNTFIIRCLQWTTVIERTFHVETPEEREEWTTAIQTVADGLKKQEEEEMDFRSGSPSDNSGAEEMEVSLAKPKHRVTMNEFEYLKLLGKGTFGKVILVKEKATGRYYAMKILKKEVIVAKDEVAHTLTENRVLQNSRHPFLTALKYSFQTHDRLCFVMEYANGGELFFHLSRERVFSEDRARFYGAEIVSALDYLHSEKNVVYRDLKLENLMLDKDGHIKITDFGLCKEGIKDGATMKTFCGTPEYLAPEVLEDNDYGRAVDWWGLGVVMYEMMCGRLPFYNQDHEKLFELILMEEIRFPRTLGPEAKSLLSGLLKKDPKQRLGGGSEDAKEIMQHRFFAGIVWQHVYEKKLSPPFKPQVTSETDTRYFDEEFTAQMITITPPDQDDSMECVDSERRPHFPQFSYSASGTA
T9 sequence (P16234 24-1089): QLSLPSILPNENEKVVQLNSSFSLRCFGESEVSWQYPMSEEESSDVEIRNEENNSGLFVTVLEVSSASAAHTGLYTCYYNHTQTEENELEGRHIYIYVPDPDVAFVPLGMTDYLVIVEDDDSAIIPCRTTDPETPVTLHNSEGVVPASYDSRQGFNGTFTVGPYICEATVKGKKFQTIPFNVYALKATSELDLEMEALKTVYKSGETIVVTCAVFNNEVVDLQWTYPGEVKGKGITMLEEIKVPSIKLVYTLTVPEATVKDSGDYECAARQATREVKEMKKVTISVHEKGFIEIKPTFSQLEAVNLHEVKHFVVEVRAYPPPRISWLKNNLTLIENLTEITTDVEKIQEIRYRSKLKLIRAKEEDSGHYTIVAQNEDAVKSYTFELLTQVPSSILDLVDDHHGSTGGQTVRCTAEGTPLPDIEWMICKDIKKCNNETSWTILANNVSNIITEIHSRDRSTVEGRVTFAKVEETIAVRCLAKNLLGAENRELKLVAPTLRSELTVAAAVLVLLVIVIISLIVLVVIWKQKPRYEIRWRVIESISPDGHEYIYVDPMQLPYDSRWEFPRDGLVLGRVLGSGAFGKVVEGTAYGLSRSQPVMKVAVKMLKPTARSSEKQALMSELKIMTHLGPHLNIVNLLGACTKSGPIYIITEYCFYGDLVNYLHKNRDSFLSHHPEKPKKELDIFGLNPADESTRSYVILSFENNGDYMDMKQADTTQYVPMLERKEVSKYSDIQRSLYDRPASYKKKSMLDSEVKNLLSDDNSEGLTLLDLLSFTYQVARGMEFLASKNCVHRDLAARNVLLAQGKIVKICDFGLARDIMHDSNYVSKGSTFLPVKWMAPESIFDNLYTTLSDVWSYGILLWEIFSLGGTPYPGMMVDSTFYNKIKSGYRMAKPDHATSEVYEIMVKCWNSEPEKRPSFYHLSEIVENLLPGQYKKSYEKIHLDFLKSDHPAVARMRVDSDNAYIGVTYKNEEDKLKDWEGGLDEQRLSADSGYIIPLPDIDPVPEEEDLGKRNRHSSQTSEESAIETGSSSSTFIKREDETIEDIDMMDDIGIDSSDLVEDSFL
T3 sequence (P21127 whole entry): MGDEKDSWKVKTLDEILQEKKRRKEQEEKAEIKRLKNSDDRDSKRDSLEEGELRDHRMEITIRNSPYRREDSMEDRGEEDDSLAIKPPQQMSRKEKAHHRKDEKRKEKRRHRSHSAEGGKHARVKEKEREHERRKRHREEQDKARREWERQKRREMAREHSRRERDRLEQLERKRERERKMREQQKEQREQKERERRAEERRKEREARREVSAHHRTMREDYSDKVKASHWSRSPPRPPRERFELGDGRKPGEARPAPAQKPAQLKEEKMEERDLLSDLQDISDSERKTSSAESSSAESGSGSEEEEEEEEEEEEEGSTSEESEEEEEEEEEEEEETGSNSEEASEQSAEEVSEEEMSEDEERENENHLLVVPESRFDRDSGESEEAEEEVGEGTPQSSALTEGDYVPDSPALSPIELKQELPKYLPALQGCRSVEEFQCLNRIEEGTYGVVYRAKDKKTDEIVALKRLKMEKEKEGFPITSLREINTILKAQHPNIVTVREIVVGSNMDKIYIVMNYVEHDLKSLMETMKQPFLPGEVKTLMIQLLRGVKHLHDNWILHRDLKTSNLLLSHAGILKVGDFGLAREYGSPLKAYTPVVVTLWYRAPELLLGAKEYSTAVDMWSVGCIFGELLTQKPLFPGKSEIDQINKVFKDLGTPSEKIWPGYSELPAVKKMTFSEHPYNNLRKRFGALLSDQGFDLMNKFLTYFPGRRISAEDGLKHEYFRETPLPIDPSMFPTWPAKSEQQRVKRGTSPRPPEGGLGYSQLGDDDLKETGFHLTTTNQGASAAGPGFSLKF
T6 sequence (O75676 411-674 limits assumed): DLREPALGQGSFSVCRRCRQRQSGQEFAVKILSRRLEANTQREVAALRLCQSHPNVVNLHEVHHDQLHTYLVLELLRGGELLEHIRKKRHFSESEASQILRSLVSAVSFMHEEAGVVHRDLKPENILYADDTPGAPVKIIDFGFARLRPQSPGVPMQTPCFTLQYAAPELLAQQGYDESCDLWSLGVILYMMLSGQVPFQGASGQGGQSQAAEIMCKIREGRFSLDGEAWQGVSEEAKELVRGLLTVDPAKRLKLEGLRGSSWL
T2 sequence (P53667 whole entry): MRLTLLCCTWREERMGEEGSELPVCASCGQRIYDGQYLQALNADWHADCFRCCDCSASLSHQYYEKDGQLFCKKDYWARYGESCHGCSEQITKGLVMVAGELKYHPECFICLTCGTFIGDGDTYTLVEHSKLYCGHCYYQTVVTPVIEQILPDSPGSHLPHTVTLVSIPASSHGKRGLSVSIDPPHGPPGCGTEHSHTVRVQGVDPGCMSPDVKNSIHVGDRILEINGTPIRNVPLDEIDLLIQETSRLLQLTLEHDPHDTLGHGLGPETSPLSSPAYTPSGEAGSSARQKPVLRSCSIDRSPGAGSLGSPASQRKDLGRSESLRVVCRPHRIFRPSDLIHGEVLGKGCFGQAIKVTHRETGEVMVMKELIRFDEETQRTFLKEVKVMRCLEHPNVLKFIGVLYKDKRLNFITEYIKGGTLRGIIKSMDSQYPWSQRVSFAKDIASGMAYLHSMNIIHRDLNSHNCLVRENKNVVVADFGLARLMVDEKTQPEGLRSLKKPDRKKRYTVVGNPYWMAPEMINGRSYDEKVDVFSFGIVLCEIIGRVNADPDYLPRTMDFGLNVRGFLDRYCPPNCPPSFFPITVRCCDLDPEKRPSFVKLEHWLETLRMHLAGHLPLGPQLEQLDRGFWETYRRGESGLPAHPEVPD

As for `Clc1cc(NCC2CC2)c2ncc(-c3ccc4[nH]ncc4c3)n2n1` [compound 2, 6-Chloro-N-(cyclopropylmethyl)-3-(1H-indazol-5-yl)imidazo[1,2-b]pyridazin-8-amine], the remaining binding at 1 µM came to 83% at IKK-beta; 100% at LIMK1; 100% on CDC2L1; 79% at PCTK3; 89% at MET(M1250T); 87% in assay [1]. The remaining binding at 1 µM was found to be 87% at MEK3; 31% on RIOK3; 12% at PDGFRA; 100% on NEK2; 98% at AKT1; 85% on MLK1.

`O=C(CN1CCOCC1)N[C@H]1CC[C@H](Nc2cc(Cl)nn3c(-c4ccc5[nH]ncc5c4)cnc23)CC1` [compound 26]: the remaining binding at 1 µM on IKK-beta was 94%; on LIMK1, 97%; on CDC2L1, 100%; at PCTK3, 80%; on MET(M1250T), 82%; in assay [1], 81%. Also, the remaining binding at 1 µM at MEK3 is 100%; on RIOK3, 32%; at PDGFRA it was 0.3%; at NEK2, 92%; on AKT1 it was 100%; at MLK1, 100%.

In the case of `CN1CCC(CNc2cc(Cl)nn3c(-c4cc5nc(Nc6ccccc6)[nH]c5cc4F)cnc23)CC1` [compound 31, 6-Chloro-3-(6-fluoro-2-(phenylamino)-1H-benzo[d]imidazol-5-yl)-N-((1-methylpiperidin-4-yl)methyl)imidazo[1,2-b]pyridazin-8-amine], the remaining binding at 1 µM amounted to 90% on IKK-beta; 98% at LIMK1; 92% at CDC2L1; 88% on PCTK3; 98% on MET(M1250T); 86% in [1]. Further, the remaining binding at 1 µM on MEK3 turned out to be 88%; at RIOK3, 94%; at PDGFRA, 94%; at NEK2, 92%; on AKT1, 100%; at MLK1, 93%.
